Where “and” joins values, the source holds several entries; their conditions need not be identical. Identical values can stand only once.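 Briefly, cells in 96-well plates were exposed to five compound concentrations for 48 h, and endpoints were estimated by linear interpolation. GI50 is the concentration that inhibits growth by half.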 Calls of active or inactive are those of the source. Rule as the data show it: active = GI50 up to about 1.1 µM and inactive = higher.

Test systems include A498; ACHN; COLO 205; DMS-114; HCC 2998; HOP-62; K562; KM12; LOX IMVI; NCI-H226; NCI-H522; OVCAR-3; OVCAR-5; SK-MEL-2; SNB-75; SR; UO-31; DU-145; PC-3; T47D.
What all share (test): NCI tumour cell line growth inhibition, 48 h

Turning to `COC1OC2COC(C)(C)OC2C(OC(C)=O)C1NC(=O)N(CCCl)N=O` (configuration not stated), the GI50 in the experiment with A498 was > 100 µM (inactive); with ACHN, > 100 µM (inactive); with COLO 205 it was > 100 µM (inactive); in the experiment with DMS-114 it was > 100 µM (inactive); in the experiment with HCC 2998, > 100 µM (inactive); in the experiment on HOP-62 it was 48.1 µM (inactive). The GI50 was 54.8 µM (inactive) in the experiment on K562; > 100 µM (inactive) in the experiment with KM12; 28.7 µM (inactive) with LOX IMVI; 47 µM (inactive) in the experiment on NCI-H226; 11.7 µM (inactive) with NCI-H522; > 100 µM (inactive) in the experiment with OVCAR-3. The GI50 was > 100 µM (inactive) in the experiment with OVCAR-5, > 100 µM (inactive) with SK-MEL-2 and 29.1 µM (inactive) in the experiment on SNB-75.

As for `N#C/C(=C/c1cccnc1)C(=O)c1ccccc1`, the GI50 in the experiment on ACHN, with COLO 205, in the experiment on DMS-114, with HCC 2998, in the experiment on HOP-62 and in the experiment on K562 was > 100 µM (inactive) each time. In addition, the GI50 in the experiment with KM12, with LOX IMVI, in the experiment on NCI-H226, with NCI-H522, in the experiment on OVCAR-3 and in the experiment with OVCAR-5 was > 100 µM (inactive) throughout. The GI50 in the experiment on SK-MEL-2, in the experiment with SNB-75, in the experiment on SR and in the experiment with UO-31 was > 100 µM (inactive) in each case.

As for `COc1cc2c(c3c1c(=O)c1ccccc1n3C)C=CC(C)(C)O2` [ACRONINE], the GI50 was 45.4 µM (inactive) in the experiment with ACHN; > 100 µM (inactive) with COLO 205; 45.4 µM (inactive) in the experiment on DMS-114; 46.9 µM (inactive) in the experiment with HOP-62; 52.1 µM (inactive) in the experiment with K562; > 100 µM (inactive) in the experiment on KM12. In addition, the GI50 with LOX IMVI was > 100 µM (inactive); in the experiment on NCI-H226 it was > 100 µM (inactive); in the experiment on NCI-H522 it was 18.5 µM (inactive); in the experiment with OVCAR-3, > 100 µM (inactive); in the experiment on OVCAR-5, > 100 µM (inactive); in the experiment on SK-MEL-2, > 100 µM (inactive). The GI50 in the experiment on SNB-75 is 82.6 µM (inactive); with SR, 0.885 µM (active); in the experiment with UO-31, 49.9 µM (inactive).

As for `Cc1cc2c(c3nocc13)C(=O)c1ccccc1C2=O`, the GI50 in the experiment with ACHN, with COLO 205, in the experiment with DMS-114, in the experiment with HCC 2998, in the experiment with HOP-62 and in the experiment with K562 was > 100 µM (inactive) in each case. For the same molecule, the GI50 with KM12, in the experiment with LOX IMVI, with NCI-H522, in the experiment with OVCAR-3, in the experiment on OVCAR-5 and in the experiment with SK-MEL-2 was > 100 µM (inactive) each time. Moreover, the GI50 with SNB-75 was 28.6 µM (inactive); in the experiment with UO-31 it was > 100 µM (inactive).

Consider `CC(=O)NC1C(OCc2ccccc2)OC(COC(=O)CCCCCCCCCCNC(=O)c2cccc3c(=O)c4ccccc4[nH]c23)C(O)C1OC(C)C(=O)NC(C)C(=O)NC(CCC(N)=O)C(N)=O` (configuration not stated), for which the GI50 was 98.6 µM (inactive) in the experiment with A498; 55.8 µM (inactive) in the experiment with ACHN; 85.3 µM (inactive) in the experiment on COLO 205; 36.3 µM (inactive) in the experiment with DMS-114; > 100 µM (inactive) in the experiment on HOP-62; 35.6 µM (inactive) in the experiment with K562. Moreover, the GI50 is 49.1 µM (inactive) with KM12; 49.3 µM (inactive) in the experiment on LOX IMVI; 38.7 µM (inactive) with NCI-H226; 89.1 µM (inactive) in the experiment on NCI-H522; 43.8 µM (inactive) in the experiment with OVCAR-3; > 100 µM (inactive) in the experiment on OVCAR-5. The GI50 in the experiment on SK-MEL-2 was 50.8 µM (inactive); with SNB-75, 56.9 µM (inactive); with SR, 40.1 µM (inactive); in the experiment with UO-31, > 100 µM (inactive).

Turning to `N/N=c1\c2ccccc2c2cc3c(cc12)/c(=N/N)c1ccccc13`, the GI50 in the experiment on ACHN, in the experiment on COLO 205, with DMS-114, with HCC 2998, with HOP-62 and with K562 was > 100 µM (inactive) each time. The GI50 was > 100 µM (inactive) in the experiment on KM12; > 100 µM (inactive) in the experiment with NCI-H226; > 100 µM (inactive) in the experiment on NCI-H522; > 100 µM (inactive) with OVCAR-5; > 100 µM (inactive) with SK-MEL-2; 59.4 µM (inactive) with SNB-75. Also, the GI50 with SR was 76.2 µM (inactive); in the experiment with UO-31, > 100 µM (inactive).

In the case of `O=C(CSc1nnc(-c2ccc(/N=C\c3ccc(Cl)cc3)cc2)o1)Nc1ccc(Cl)cc1`, the GI50 in the experiment with ACHN, with COLO 205, with DMS-114, in the experiment on HOP-62, in the experiment on K562 and in the experiment with KM12 was > 100 µM (inactive) throughout. The GI50 with LOX IMVI, with NCI-H226, in the experiment with NCI-H522, in the experiment on SK-MEL-2, in the experiment on SNB-75 and in the experiment with SR was > 100 µM (inactive) in each case. Moreover, the GI50 with UO-31 is > 100 µM (inactive).

Consider `CCOC12SC(Nc3ccc(C)cc3)=NN1C(=S)N(C)N=C2C` (configuration not stated), for which the GI50 in the experiment with A498, in the experiment on ACHN, in the experiment on COLO 205, in the experiment with DMS-114, with HOP-62 and in the experiment on K562 was > 100 µM (inactive) throughout. In addition, the GI50 in the experiment on KM12, in the experiment on LOX IMVI, in the experiment on NCI-H226, with NCI-H522, in the experiment on OVCAR-5 and in the experiment with SNB-75 was > 100 µM (inactive) each time. Also, in the experiment on SR, the GI50 was > 100 µM (inactive).

On to `N#CC12CCC1C1CCCCC12N1CCSCC1` (configuration not stated), for which the GI50 in the experiment on A498, in the experiment on ACHN, in the experiment on COLO 205, in the experiment on DMS-114, in the experiment with HCC 2998 and with HOP-62 was > 100 µM (inactive) throughout. Moreover, the GI50 was 76.6 µM (inactive) with K562; 92.3 µM (inactive) in the experiment with KM12; > 100 µM (inactive) in the experiment with OVCAR-3; 35.4 µM (inactive) in the experiment on SK-MEL-2; > 100 µM (inactive) with SNB-75; 60.5 µM (inactive) in the experiment on SR. For the same molecule, in the experiment on UO-31, the GI50 was > 100 µM (inactive).

Consider `CCOC(=O)C1C(c2ccc([N+](=O)[O-])cc2)NC(c2ccc([N+](=O)[O-])cc2)C(C(=O)OC)S1(=O)=O` (configuration not stated), for which the GI50 in the experiment with ACHN, in the experiment with COLO 205, in the experiment on DMS-114, with HCC 2998, in the experiment on HOP-62 and in the experiment on K562 was > 100 µM (inactive) in each case. The GI50 in the experiment with KM12, in the experiment on LOX IMVI, in the experiment on NCI-H226, with NCI-H522, in the experiment on OVCAR-3 and with OVCAR-5 was > 100 µM (inactive) throughout. Also, the GI50 with SK-MEL-2, in the experiment with SNB-75, in the experiment on SR and in the experiment on UO-31 was > 100 µM (inactive) each time.

Turning to `COC(=O)c1cc2c(c(C(=O)OC)c1O)C(=O)C=CC2=O`, the GI50 in the experiment with A498 was > 41.1 µM (inactive); in the experiment with ACHN, > 31.3 µM (inactive); in the experiment on COLO 205, > 50.2 µM (inactive); in the experiment with DMS-114, > 48.6 µM (inactive); in the experiment with HCC 2998 it was > 43.1 µM (inactive); with HOP-62, 30 µM (inactive). The GI50 in the experiment on KM12 was > 43.5 µM (inactive); in the experiment with LOX IMVI, 36.4 µM (inactive); in the experiment with NCI-H226, > 9.1 µM (inactive); in the experiment on OVCAR-3, > 41.2 µM (inactive); in the experiment on OVCAR-5 it was > 40.4 µM (inactive); in the experiment on SK-MEL-2, > 9.1 µM (inactive). Further, the figures for the GI50 in the experiment on SNB-75 and in the experiment on UO-31 were 9.95 µM (inactive) and > 42.9 µM (inactive), respectively.

On to `S=c1cc(S)c2c(=S)sc3nc4ccccn4c(=S)c3c2s1`, for which the GI50 with A498 is > 100 µM (inactive); with ACHN it was > 100 µM (inactive); in the experiment on DMS-114, 7.03 µM (inactive); in the experiment with HCC 2998, 39.5 µM (inactive); with K562, 18.5 µM (inactive); with KM12, > 100 µM (inactive). Moreover, the GI50 in the experiment on LOX IMVI was 47.2 µM (inactive); in the experiment with NCI-H226, > 100 µM (inactive); in the experiment with OVCAR-3, 28.2 µM (inactive); in the experiment with OVCAR-5, > 100 µM (inactive); with SK-MEL-2, 56.2 µM (inactive); in the experiment on SNB-75, > 100 µM (inactive). In addition, the GI50 was 25.9 µM (inactive) in the experiment on SR and 72.4 µM (inactive) in the experiment on UO-31.

For the molecule `NCCOCC(N)C(=O)O` (configuration not stated), the GI50 with A498, in the experiment with ACHN, with COLO 205, with DU-145, in the experiment with HCC 2998 and in the experiment with HOP-62 was > 100 µM (inactive) each time. Moreover, the GI50 with K562 is > 100 µM (inactive); with KM12, > 100 µM (inactive); in the experiment on LOX IMVI it was > 100 µM (inactive) and > 77.4 µM (inactive); in the experiment with NCI-H226 it was > 100 µM (inactive); in the experiment on NCI-H522, > 100 µM (inactive); in the experiment on OVCAR-3, > 100 µM (inactive). For the same molecule, the GI50 was > 100 µM (inactive) in the experiment on OVCAR-5; > 100 µM (inactive) in the experiment with PC-3; > 100 µM (inactive) with SK-MEL-2; > 100 µM (inactive) in the experiment with SNB-75; > 100 µM (inactive) and 54.8 µM (inactive) with SR; > 100 µM (inactive) with T47D. In addition, in the experiment on UO-31, the GI50 was > 100 µM (inactive).

Source of the values: ChEMBL document CHEMBL1201862, “PubChem BioAssay data set” (2004).
